Measured values: publication PMC2074382 (British Journal of Cancer, 1996)
Where a name gives a salt, the structure may show the parent alone.

Legend:
[1] = system: patients with a solid tumour; experiment: Phase I study, toxicity (CTC criteria) of GI147211 30 min i.v. infusion daily x 5 every 3 weeks; type: in vivo, human
Description: British Journal of Cancer (1996) 73, 744-750 O (C? 1996 Stockton Press All rights reserved 0007-0920/96 $12.00 Phase I and pharmacological study of the new topoisomerase I inhibitor G1147211, using a daily x 5 intravenous administration CJH Gerrits', GJ Creemers', JHM Schellens', P Wissel2, AS Th Planting', R Kunka2, K Selinger2, M de Boer-Dennert', Y Marijnen3, M Harteveld' and J Verweijl 'Department of Medical Oncology, Rotterdam Cancer Institute, Rotterdam, The Netherlands; 2Glaxo Wellcome Inc, Department of Clinical Pharmacology, NC, USA; 3Glaxo Wellcome Inc, Department of Clinical Research, Zeist, The Netherlands. Summary Topoisomerase I inhibitors are interesting anti-cancer agents with a novel mechanism of action. […] In subsequent patient cohorts the dose was escalated from 0.3 to 1.5 mg m-2 day-'. Pharmacokinetics analysis was performed on days 1 and 4 of the first course using a validated high- performance liquid chromatographic assay and non-compartmental methods. […] Its further development was stopped because of unpredictable and severe myelosuppression, gastrointestinal toxicity and haemorrhagic cystitis. In the late 1980s two discoveries brought about a renewal of interest in CPT; firstly, topoisomerase I was identified as the single cellular target of CPT (Hsiang et al., 1985; Hsiang and Liu, 1988) and, secondly, an overexpression of topoisomerase I was found in various tumour cell lines but not in normal tissues (Giovanella et al., 1989; Hirabayaski et al., 1992; Potmesil et al., 1988). Topoisomerase I is a nuclear enzyme that resolves topological problems of the torsionally strained (supercoiled) DNA (Slichenmyer et al., 1993). This is achieved by forming a covalent adduct between topoisome- rase I and the DNA, termed the cleavable complex. This catalytic intermediate creates single-strand DNA breaks, allowing the DNA molecule to rotate around the intact DNA strand at the cleavage site, leading to a relaxation of the DNA molecule and in this way replication, transcription and other DNA functions can proceed. These enzyme- bridged breaks are then resealed by topoisomerase I. CPT stabilises the cleavable complexes, thereby preventing resealing of single-strand DNA breaks in the presence of the drug (Covey et al., 1989; D'Arpa and Liu, 1989; Eng et al., 1988). Cytotoxicity is specific to the S-phase of the cell cycle because the double-strand breaks that occur during this phase are more difficult to repair in the presence of the drug (Horwitz and Horwitz, 1973). […] Other eligibility criteria included: (1) age>, 18 years; (2) an Eastern Cooperative Oncology Group (ECOG) performance status <2; (3) a predicted life expectancy of at least 3 months; (4) no previous anti-cancer therapy for at least 3 weeks (6 weeks for previous nitro- soureas or mitomycin C); (5) adequate haemato- poietic (WBC) 3 x 109 -', ANC > 1.5 x 109 1-' and platelets 100 x 10 1- 1), hepatic (bilirubin within normal limits, AST, ALT and/or alkaline phosphatase < 2.0 x normal), and renal (serum creatinine < 130 imol 1-') functions. All patients gave written informed consent.

mice = details: by rough estimate; cited from earlier work
[2] = 0.3 mg m-2 day-1, 3 patients, 10 evaluable courses
[3] = 0.6 mg m-2 day-1, 3 patients, 18 evaluable courses
[4] = 0.9 mg m-2 day-1, 3 patients, 9 evaluable courses
[5] = 1.2 mg m-2 day-1, 6 patients, 15 evaluable courses
[6] = 1.2 mg m-2 day-1, n=6, Table III
[7] = 1.2 mg m-2 day-1, n=7, Table III
[8] = 1.5 mg m-2 day-1, 6 patients, 15 evaluable courses
[9] = 1.5 mg m-2 day-1, n=7, Table III
[10] = 1.5 mg m-2 day-1, n=13, Table III

SMILES: CC[C@@]1(O)C(=O)OCc2c1cc1n(c2=O)Cc2c-1nc1cc3c(cc1c2CN1CCN(C)CC1)OCCO3 [GI147211, [7 - (methylpiperazinomethylene) - 10,11 - ethylene-dioxy-20(S)] camptothecin dihydrochloride]
- Leucocytes CTC grade 1, number of courses [1, 2]: 0
- Leucocytes CTC grade 2, number of courses [1, 2]: 0
- Leucocytes CTC grade 3, number of courses [1, 2]: 0
- Leucocytes CTC grade 4, number of courses [1, 2]: 0
- Neutrophils CTC grade 1, number of courses [1, 2]: 0
- Neutrophils CTC grade 2, number of courses [1, 2]: 0
- Neutrophils CTC grade 3, number of courses [1, 2]: 0
- Neutrophils CTC grade 4, number of courses [1, 2]: 0
- Platelets CTC grade 1, number of courses [1, 2]: 0
- Platelets CTC grade 2, number of courses [1, 2]: 0
- Platelets CTC grade 3, number of courses [1, 2]: 0
- Platelets CTC grade 4, number of courses [1, 2]: 0
- Leucocytes CTC grade 1, number of courses [1, 3]: 8
- Leucocytes CTC grade 2, number of courses [1, 3]: 0
- Leucocytes CTC grade 3, number of courses [1, 3]: 0
- Leucocytes CTC grade 4, number of courses [1, 3]: 0
- Neutrophils CTC grade 1, number of courses [1, 3]: 4
- Neutrophils CTC grade 2, number of courses [1, 3]: 1
- Neutrophils CTC grade 3, number of courses [1, 3]: 0
- Neutrophils CTC grade 4, number of courses [1, 3]: 0
- Platelets CTC grade 1, number of courses [1, 3]: 1
- Platelets CTC grade 2, number of courses [1, 3]: 0
- Platelets CTC grade 3, number of courses [1, 3]: 0
- Platelets CTC grade 4, number of courses [1, 3]: 0
- Leucocytes CTC grade 1, number of courses [1, 4]: 3
- Leucocytes CTC grade 2, number of courses [1, 4]: 1
- Leucocytes CTC grade 3, number of courses [1, 4]: 1
- Leucocytes CTC grade 4, number of courses [1, 4]: 0
- Neutrophils CTC grade 1, number of courses [1, 4]: 0
- Neutrophils CTC grade 2, number of courses [1, 4]: 4
- Neutrophils CTC grade 3, number of courses [1, 4]: 1
- Neutrophils CTC grade 4, number of courses [1, 4]: 0
- Platelets CTC grade 1, number of courses [1, 4]: 4
- Platelets CTC grade 2, number of courses [1, 4]: 2
- Platelets CTC grade 3, number of courses [1, 4]: 1
- Platelets CTC grade 4, number of courses [1, 4]: 0
- ANC nadir, range ([1]; 1.2 mg m-2 day-1): 0.08-5.6 x 109 l-1
- grade 3-4 neutropenia, courses ([1]; 1.2 mg m-2 day-1): 7/15
- grade 3-4 thrombocytopenia, courses ([1]; 1.2 mg m-2 day-1): 6/15
- median ANC nadir ([1]; 1.2 mg m-2 day-1): 1.29e+09 L⁻¹
- median platelet nadir ([1]; 1.2 mg m-2 day-1): 7.4e+10 L⁻¹
- platelet nadir, range ([1]; 1.2 mg m-2 day-1): 33-379 x 109 l-1
- subsequent courses postponed owing to prolonged myelosuppression ([1]; 1.2 mg m-2 day-1): 6/15
- Leucocytes CTC grade 1, number of courses [1, 5]: 1
- Leucocytes CTC grade 2, number of courses [1, 5]: 1
- Leucocytes CTC grade 3, number of courses [1, 5]: 4
- Leucocytes CTC grade 4, number of courses [1, 5]: 2
- Neutrophils CTC grade 1, number of courses [1, 5]: 2
- Neutrophils CTC grade 2, number of courses [1, 5]: 2
- Neutrophils CTC grade 3, number of courses [1, 5]: 1
- Neutrophils CTC grade 4, number of courses [1, 5]: 6
- Platelets CTC grade 1, number of courses [1, 5]: 0
- Platelets CTC grade 2, number of courses [1, 5]: 1
- Platelets CTC grade 3, number of courses [1, 5]: 6
- Platelets CTC grade 4, number of courses [1, 5]: 0
- Day nadir, thrombocytopenia (range) [1, 6]: 15 (10-19) day
- Median day of occurrence of grade 3-4 thrombocytopenia (range) [1, 6]: 15 (15-15) day
- Median number of days from grade 3-4 to recovery > grade 2 thrombocytopenia (range) [1, 6]: 7 (2-8) days
- Day nadir, neutropenia (range) [1, 7]: 22 (13-22) day
- Median day of occurrence of grade 3-4 neutropenia (range) [1, 7]: 15 (10-19) day
- Median number of days from grade 3-4 to recovery > grade 2 neutropenia (range) [1, 7]: 10 (1_10) days
- ANC nadir, range ([1]; 1.5 mg m-2 day-1): 0.01-1.7 x 109 l-1
- grade 3-4 neutropenia, courses ([1]; 1.5 mg m-2 day-1): 13/15
- grade 3-4 neutropenia, per cent of courses ([1]; 1.5 mg m-2 day-1): 86%
- median ANC nadir ([1]; 1.5 mg m-2 day-1): 9e+07 L⁻¹
- median platelet nadir ([1]; 1.5 mg m-2 day-1): 6.2e+10 L⁻¹
- platelet nadir, range ([1]; 1.5 mg m-2 day-1): 10-116 x 109 l-1
- thrombocytopenia complicated by gastrointestinal bleeding ([1]; 1.5 mg m-2 day-1): two
- thrombocytopenia grade 3-4, courses ([1]; 1.5 mg m-2 day-1): 7/15
- thrombocytopenia grade 3-4, per cent of courses ([1]; 1.5 mg m-2 day-1): 46%
- treatment delay, courses ([1]; 1.5 mg m-2 day-1): 5 of the 15 courses
- Leucocytes CTC grade 1, number of courses [1, 8]: 0
- Leucocytes CTC grade 2, number of courses [1, 8]: 9
- Leucocytes CTC grade 3, number of courses [1, 8]: 3
- Leucocytes CTC grade 4, number of courses [1, 8]: 3
- Neutrophils CTC grade 1, number of courses [1, 8]: 2
- Neutrophils CTC grade 2, number of courses [1, 8]: 0
- Neutrophils CTC grade 3, number of courses [1, 8]: 2
- Neutrophils CTC grade 4, number of courses [1, 8]: 11
- Platelets CTC grade 1, number of courses [1, 8]: 2
- Platelets CTC grade 2, number of courses [1, 8]: 6
- Platelets CTC grade 3, number of courses [1, 8]: 4
- Platelets CTC grade 4, number of courses [1, 8]: 3
- Day nadir, thrombocytopenia (range) [1, 9]: 15 (13 15) day
- Median day of occurrence of grade 3-4 thrombocytopenia (range) [1, 9]: 15 (10-15) day
- Median number of days from grade 3-4 to recovery > grade 2 thrombocytopenia (range) [1, 9]: 8 (5-12) days
- Day nadir, neutropenia (range) [1, 10]: 15 (13 -22) day
- Median day of occurrence of grade 3-4 neutropenia (range) [1, 10]: 10 (5-25) day
- Median number of days from grade 3-4 to recovery > grade 2 neutropenia (range) [1, 10]: 11 (4-25) days
- infectious complications ([1]; 1.5 mg m-2 day-1, two life-threatening septic): Three
- maximal tolerated dose ([1]; 30 min i.v. infusion daily x 5, every 3 weeks): 1.2 mg m-2 day-1
- severity of nausea and vomiting ([1]; CTC grade): never worse than grade 1-2
- cumulative myelotoxicity ([1]; all dose levels): not observed
- mild headache, courses ([1]; all dose levels): eight
- mild headache, per cent of courses ([1]; all dose levels): 12%
- nausea, per cent of given courses ([1]; all dose levels): 44%
- other non-haematological toxicities ([1]; all dose levels): no diarrhoea, mucositis, liver or renal toxicity
- vomiting, per cent of given courses ([1]; all dose levels): 22%
- nausea, number of given courses ([1]; all dose levels, 67 courses): 30 courses
- vomiting, number of given courses ([1]; all dose levels, 67 courses): 15 courses
- dose-limiting toxicities ([1]; at 1.5 mg m-2 day-1): neutropenia and thrombocytopenia
- myelotoxicity ([1]; first two dose levels (0.3, 0.6 mg m-2 day-1)): No myelotoxicity
- alopecia grade 1 ([1]; highest two dose levels): three
- anaemia ([1]; in vivo): occurred frequently but was never severe
- recommended dose for phase II studies ([1]; x 5 every 3 weeks): 1.2 mg m-2
- murine LD10 compared with topotecan (mice): equivalent to topotecan
